Counter-ions that a name gives are not always drawn.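 Step 1: Grow cells in 96-well plates. Step 2: Expose to compound for 48 hours at 5 concentrations. Step 3: Interpolate endpoints linearly; if unreached, use highest concentration. At the GI50, growth is halved.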 Active and inactive are the calls of the source. No stated cut-off is given here; in the data, active = GI50 up to about 1.1 µM and inactive = higher.
How the values were obtained:
Assay in all cases: NCI-60 cell line screen, 48 h
SR = test system: SR
Malme-3M = test system: Malme-3M
RXF 393 = test system: RXF 393
CAKI-1 = test system: CAKI-1
HL-60 = test system: HL-60
T47D = test system: T47D
IGROV-1 = test system: IGROV-1
OVCAR-5 = test system: OVCAR-5
K562 = test system: K562
MCF7 = test system: MCF7
MDA-MB-231 = test system: MDA-MB-231
HCT-15 = test system: HCT-15
NCI-H460 = test system: NCI-H460
HCC 2998 = test system: HCC 2998
COLO 205 = test system: COLO 205
OVCAR-4 = test system: OVCAR-4
A498 = test system: A498
MDA-MB-435 = test system: MDA-MB-435
SK-MEL-5 = test system: SK-MEL-5
UO-31 = test system: UO-31

Row | SMILES | GI50 (SR) | GI50 (Malme-3M) | GI50 (RXF 393) | GI50 (CAKI-1) | GI50 (HL-60) | GI50 (T47D) | GI50 (IGROV-1) | GI50 (OVCAR-5) | GI50 (K562) | GI50 (MCF7) | GI50 (MDA-MB-231) | GI50 (HCT-15) [µM] | GI50 (NCI-H460) | GI50 (HCC 2998) | GI50 (COLO 205) | GI50 (OVCAR-4) | GI50 (A498) | GI50 (MDA-MB-435) | GI50 (SK-MEL-5) | GI50 (UO-31)
1 | CC(C)C[C@H]1C(=O)N2CCC[C@H]2[C@]2(O)O[C@](NC(=O)[C@@H]3C=C4c5cccc6[nH]c(Br)c(c56)C[C@H]4N(C)C3)(C(C)C)C(=O)N12 [BROMOCRIPTINE MESYLATE] | 6.11 µM (inactive) | 36.5 µM (inactive) | 24.7 µM (inactive) | 46.1 µM (inactive) | 2.51 µM (inactive) | 28.2 µM (inactive) | 67.5 µM (inactive) | > 100 µM (inactive) | 4.65 µM (inactive) | 8.87 µM (inactive) | > 100 µM (inactive) | 8.67 | 10.8 µM (inactive) | 32.8 µM (inactive) | 5.27 µM (inactive) | > 100 µM (inactive) | > 100 µM (inactive) | 38.2 µM (inactive) | 21.7 µM (inactive) | 4.61 µM (inactive)
2 | CCOC(=O)C(NC(=O)CC)(Nc1ccc(S(=O)(=O)Nc2ccc(OC)nn2)cc1)C(F)(F)F (stereo not given) | > 100 µM (inactive) | > 100 µM (inactive) | > 100 µM (inactive) | > 100 µM (inactive) | > 100 µM (inactive) | > 100 µM (inactive) | > 100 µM (inactive) | > 100 µM (inactive) | > 100 µM (inactive) | > 100 µM (inactive) | > 100 µM (inactive) | > 100 | > 100 µM (inactive) | 27.4 µM (inactive) | > 100 µM (inactive) | > 100 µM (inactive) | > 100 µM (inactive) | > 100 µM (inactive) | > 100 µM (inactive) | > 100 µM (inactive)
3 | CC(=O)[C@H]1[C@@H](OCc2ccccc2)O[N+]([O-])=C(C)[C@@H]1c1ccccc1 | 19.2 µM (inactive) | 26.4 µM (inactive) | 17.3 µM (inactive) | 23.6 µM (inactive) | 19 µM (inactive) | 21.3 µM (inactive) | 35.8 µM (inactive) | > 100 µM (inactive) | 14.5 µM (inactive) | 30.8 µM (inactive) | 34.6 µM (inactive) | 27.7 | 53.8 µM (inactive) | > 100 µM (inactive) | 42.7 µM (inactive) | 47.1 µM (inactive) | > 100 µM (inactive) | 45 µM (inactive) | 48.5 µM (inactive) | 20.8 µM (inactive)
4 | COC(=O)C1C(=O)CC(C)(O)C(C(=O)OC)C1c1ccc(N(C)C)cc1 (stereo not given) | > 100 µM (inactive) | > 100 µM (inactive) | > 100 µM (inactive) | > 100 µM (inactive) | > 100 µM (inactive) | > 100 µM (inactive) | > 100 µM (inactive) | > 100 µM (inactive) | > 100 µM (inactive) | > 100 µM (inactive) | > 100 µM (inactive) | > 100 | > 100 µM (inactive) | > 100 µM (inactive) | > 100 µM (inactive) | > 100 µM (inactive) | > 100 µM (inactive) | > 100 µM (inactive) | > 100 µM (inactive) | > 100 µM (inactive)
5 | Clc1ccc(-c2noc(CN3CCCCC3)n2)cc1 | 63.1 µM (inactive) | > 100 µM (inactive) | 44 µM (inactive) | > 100 µM (inactive) | 85.9 µM (inactive) | 47.8 µM (inactive) | > 100 µM (inactive) | > 100 µM (inactive) | 55.8 µM (inactive) | > 100 µM (inactive) | > 100 µM (inactive) | > 100 | > 100 µM (inactive) | 58.9 µM (inactive) | 90.2 µM (inactive) | > 100 µM (inactive) | > 100 µM (inactive) | > 100 µM (inactive) | 34 µM (inactive) | > 100 µM (inactive)
6 | CC(=O)OC(Cc1ccc2ccccc2n1)(C(F)(F)F)C(F)(F)F | 0.11 µM (active) | 0.849 µM (active) | 0.675 µM (active) | 0.802 µM (active) | 0.0205 µM (active) | 0.181 µM (active) | 1.31 µM (inactive) | 2.89 µM (inactive) | 0.594 µM (active) | 0.063 µM (active) | 1.28 µM (inactive) | 1.97 | 6 µM (inactive) | 0.851 µM (active) | 0.217 µM (active) | 2.45 µM (inactive) | 1.95 µM (inactive) | 1.21 µM (inactive) | 0.253 µM (active) | 2.22 µM (inactive)
7 | Cc1ccccc1NC(=O)CC(=O)NNC(Sc1ccccc1)c1cc(/N=N/c2ccc(Br)cc2)ccc1O (stereo not given) | 0.37 µM (active) | 3.26 µM (inactive) | 2.13 µM (inactive) | 2.53 µM (inactive) | 0.277 µM (active) | 3.93 µM (inactive) | 8.02 µM (inactive) | 7.59 µM (inactive) | 2.73 µM (inactive) | 0.798 µM (active) | 1.14 µM (inactive) | 0.836 | 0.658 µM (active) | 7.36 µM (inactive) | 3.1 µM (inactive) | 2.09 µM (inactive) | 2.4 µM (inactive) | 3.65 µM (inactive) | 1.24 µM (inactive) | 2.68 µM (inactive)
8 | CC(C)(C)c1cc2c(O)c(c1)Cc1cc(C(C)(C)C)cc(c1O)Cc1cc(C(C)(C)C)cc(c1O)Cc1cc(C(C)(C)C)cc(c1O)Cc1cc(C(C)(C)C)cc(c1O)Cc1cc(C(C)(C)C)cc(c1O)Cc1cc(C(C)(C)C)cc(c1O)Cc1cc(C(C)(C)C)cc(c1O)C2 | > 50 µM (inactive) | > 50 µM (inactive) | > 50 µM (inactive) | > 50 µM (inactive) | > 50 µM (inactive) | > 50 µM (inactive) | > 50 µM (inactive) | > 50 µM (inactive) | > 50 µM (inactive) | > 50 µM (inactive) | > 50 µM (inactive) | > 50 | > 50 µM (inactive) | > 50 µM (inactive) | > 50 µM (inactive) | > 50 µM (inactive) | > 50 µM (inactive) | > 50 µM (inactive) | > 50 µM (inactive) | > 50 µM (inactive)
9 | O=C(O)CCNc1[nH]cnc2ncnc1-2 | > 100 µM (inactive) | > 100 µM (inactive) | > 100 µM (inactive) | > 100 µM (inactive) | > 100 µM (inactive) | > 100 µM (inactive) | > 100 µM (inactive) | > 100 µM (inactive) | > 100 µM (inactive) | > 100 µM (inactive) | > 100 µM (inactive) | > 100 | > 100 µM (inactive) | > 100 µM (inactive) | > 100 µM (inactive) | > 100 µM (inactive) | > 100 µM (inactive) | > 100 µM (inactive) | > 100 µM (inactive) | > 100 µM (inactive)
10 | Cc1ccc(S(=O)(=O)N2CCN(CCN(C)CCN3CCN(S(=O)(=O)c4ccc(C)cc4)CC3)CC2)cc1 | 18.5 µM (inactive) | 18.6 µM (inactive) | 14.3 µM (inactive) | 19.4 µM (inactive) | 16.1 µM (inactive) | 19.3 µM (inactive) | 16.3 µM (inactive) | 28.5 µM (inactive) | 15 µM (inactive) | 17.7 µM (inactive) | 20.6 µM (inactive) | 17.6 | 17.5 µM (inactive) | 15.9 µM (inactive) | 18.2 µM (inactive) | 19.5 µM (inactive) | 16.4 µM (inactive) | 17.7 µM (inactive) | 16.3 µM (inactive) | 13.9 µM (inactive)
